In US20230119479A1, “A HISTONE DEACETYLASE INHIBITOR HAVING A NITROGEN-CONTAINING AROMATIC HETEROCYCLYL GROUP” (SHIONOGI & CO., LTD., priority 2019, published 2023):

Legend:
[1] = target: T1, HDAC2 Human recombinant C-terminal FLAG-tag (Homo sapiens, UniProt Q92769); test: Measurement of HDAC2 enzyme inhibitory activity (HTRF); type: biochemical; conditions: recombinant HDAC2, H3K9ac peptide, 3 hours room temperature; read-out: HDAC2 IC50
T1 construct: FLAG (C); purchased BPS Bioscience 50052
How it was run: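 Compounds were tested at 8 points in 3-fold dilutions from 99 μM final (n=2) against FLAG-tagged HDAC2 with biotinylated H3K9ac (1-21) peptide (0.6 μM as added). The reaction ran 3 h at room temperature in Tris pH 8.0 buffer, then was stopped with SAHA. Deacetylated product was detected by HTRF (Eu-anti-H3K9me0 antibody, streptavidin-XL665) as the 665/615-620 nm ratio.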

[2] = Platelet toxicity test using human blood progenitor cells (WST); type: cell-based; conditions: human bone marrow CD34+ progenitor cells, maximum concentration 25 μM
Procedure: Test Example 2: Platelet Toxicity Test Using Human Blood Progenitor Cells
Human bone marrow CD34+ progenitor cells (Lonza, 2M-101B) stored at −80° C. were thawed, spun down at 150 g for 10 minutes at 20° C., and a medium (StemSpan Expansion Supplement, STEM CELL TECHNOLOGIES, ST-02696) to which cytokines (StemSpan SFEM II, STEM CELL TECHNOLOGIES, ST-09655) was added was added to adjust to 2×10^4/well, the mixture was seeded in 12well non-coat dish (Corning, 3513), was incubated for 10 days at 37° C., 5% CO2. After 10 days, the cells were collected and spun down at 150 g for 10 minutes at 20° C., and a medium (StemSpan Expansion Supplement) containing cytokines (StemSpan SFEM II) was added so that the number of cells became 2×10^5 cells/ml. 50 μl of the cell suspension was seeded to each well of a 96-well plate (Corning, 3596) and allowed to stand overnight in an incubator at 37° C., 5% CO2. The next day, 50 μl of the test compound was treated to each well and allowed to stand for 48 hours in the incubator at 37° C., 5% CO2 (n=2). At this time, the test compound dissolved in 100% DMSO was serially diluted with DMSO at a 3-fold ratio, and then a medium containing cytokine was added to adjust the final concentration to 25, 8.33, 2.78, 0.93, 0.31, 0.1 μM. After that, 10 μl of WST (Cell count reagent SF, Nacalai Tesque Inc., 07553-44) was added to each well, and the mixture was allowed to stand in the incubator for 4 hours at 37° C., 5% CO2, and then the multi-label reader 2030 ARVO X4 (PerkinElmer) was used to measure the absorbance. At this time, the absorbance at 450 nm and the absorbance at 620 nm were obtained, and the difference between 450 nm and 620 nm was used as the measured value. The measured values were analyzed by Excel and TIBCO Spotfire, and IC50 values were calculated. At this time, for control (−), the well without cells was set as n=6 for one row, and the average value was calculated, and for control (+), the well in which DMSO was added to the cells so as to have the same concentration as the compound treatment group was set as n=6 for one row, and the average value was calculated and corrected for each plate. For the test compound, the average value of n=2 was used.

[3] = BA test (oral absorption); type: in vivo; conditions: plasma; mice or rats; oral vs intravenous administration
Procedure: Materials and methods for experiments to evaluate oral absorption (1) Experimental animals: mice or rats were used. (2) Rearing condition: mice or rats were allowed free access to solid feed and sterilized tap water. (3) Setting of dosage and grouping: Oral administration and intravenous administration were performed with the predetermined dosage. Grouping was set as below. (Dosage was changed per compound)
Oral administration 2 to 60 μmol/kg or 1 to 30 mg/kg (n=2 to 3)
Intravenous administration 1 to 30 μmol/kg or 0.5 to 10 mg/kg (n=2 to 3)
(4) Preparation of administration solutions: Oral administration was performed as suspension or solution. Intravenous administration was performed after solubilization. (5) Routes of administration: Oral administration was performed mandatory into the stomach by oral sonde. Intravenous administration was performed from caudal vein by syringes with needle. (6) Evaluation items: Blood was collected serially and concentration of a compound of the present invention in plasma was measured by LC/MS/MS. (7) Statistical analysis: About transition of concentration of a compound of the present invention in plasma, the area under the plasma concentration versus time curve (AUC) was calculated by non-linear least-squares method program, and bioavailability (BA) of a compound of the present invention was calculated from dosages and AUCs of the oral administration group and the intravenous administration group. The dilution concentration or the dilution solvent were changed as necessary.

[4] = target: T2, human ether-a-go-go related gene (hERG) channel (Homo sapiens, UniProt Q12809); test: hERG test (whole cell patch clamp); type: cell-based; conditions: CHO cells expressing hERG; concentration not given
T2 construct: expressed in transfected cells; host or cells: CHO cells
T2 sequence (Q12809 whole entry): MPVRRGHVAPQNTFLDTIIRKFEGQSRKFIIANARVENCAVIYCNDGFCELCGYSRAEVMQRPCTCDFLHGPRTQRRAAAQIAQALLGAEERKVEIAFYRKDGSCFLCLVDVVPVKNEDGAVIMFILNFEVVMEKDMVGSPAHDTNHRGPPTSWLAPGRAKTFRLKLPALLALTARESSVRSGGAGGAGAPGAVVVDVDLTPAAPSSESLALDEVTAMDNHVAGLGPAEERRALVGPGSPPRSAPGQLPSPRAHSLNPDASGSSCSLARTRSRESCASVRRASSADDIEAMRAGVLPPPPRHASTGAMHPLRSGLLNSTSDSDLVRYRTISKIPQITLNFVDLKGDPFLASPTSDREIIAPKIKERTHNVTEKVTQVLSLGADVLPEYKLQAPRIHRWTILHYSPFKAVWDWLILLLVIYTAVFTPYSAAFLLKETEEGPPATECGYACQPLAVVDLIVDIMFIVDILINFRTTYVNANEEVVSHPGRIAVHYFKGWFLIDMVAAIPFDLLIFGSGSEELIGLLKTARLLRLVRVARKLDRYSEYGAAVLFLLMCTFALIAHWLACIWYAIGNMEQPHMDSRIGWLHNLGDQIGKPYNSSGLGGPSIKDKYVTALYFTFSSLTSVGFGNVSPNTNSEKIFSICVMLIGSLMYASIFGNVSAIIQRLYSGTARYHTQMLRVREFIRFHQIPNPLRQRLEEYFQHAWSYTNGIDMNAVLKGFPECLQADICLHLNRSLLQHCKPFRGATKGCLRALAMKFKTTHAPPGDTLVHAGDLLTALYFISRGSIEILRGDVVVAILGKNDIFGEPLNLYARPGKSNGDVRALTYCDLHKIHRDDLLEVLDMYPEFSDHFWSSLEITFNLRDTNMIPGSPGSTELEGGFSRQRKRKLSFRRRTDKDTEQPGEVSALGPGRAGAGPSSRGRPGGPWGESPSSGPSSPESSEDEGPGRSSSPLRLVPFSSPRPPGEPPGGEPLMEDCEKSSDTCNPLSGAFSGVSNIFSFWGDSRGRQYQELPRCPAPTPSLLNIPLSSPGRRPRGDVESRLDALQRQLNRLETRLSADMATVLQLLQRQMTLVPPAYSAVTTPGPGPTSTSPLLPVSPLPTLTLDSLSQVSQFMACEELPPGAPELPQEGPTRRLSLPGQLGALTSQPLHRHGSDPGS
Text: For the purpose of assessing risk of an electrocardiogram QT interval prolongation of the compound of the present invention, effects of the compound of the present invention on delayed rectifier K^+ current (IKr), which plays an important role in the ventricular repolarization process, was studied using CHO cells expressing human ether-a-go-go related gene (hERG) channel.
After a cell was retained at a membrane potential of −80 mV by whole cell patch clamp method using an automated patch clamp system (QPatch; Sophion Bioscience A/S) and gave a leak potential of −50 mV, IKr induced by depolarization pulse stimulation at +20 mV for 2 seconds, and further, repolarization pulse stimulation at −50 mV for 2 seconds, was recorded. A vehicle, which was the 0.1% dimethyle sulfoxide solution in extracellular solution (NaCl: 145 mmol/L, KCl: 4 mmol/L, CaCl2: 2 mmol/L, MgCl2: 1 mmol/L, glucose:10 mmol/L, HEPES (4-(2-hydroxyethyl)-1-piperazineethanesulfonic acid): 10 mmol/L, pH7.4), or the compound of the present invention had been dissolved at an objective concentration in the extracellular solution was applied to the cell at room temperature for 7 minutes or more. From the recording IKr, an absolute value of the tail peak current was measured based on the current value at the resting membrane potential using analysis software (QPatch assay software; Sophion Bioscience A/S). Further, the % inhibition of tail peak current for the compound of the present invention relative to the tail peak current after application of the vehicle was calculated to assess influence of the compound of the present invention on IKr. The dilution concentration and dilution solvent were changed as necessary.

T1 sequence (Q92769 whole entry): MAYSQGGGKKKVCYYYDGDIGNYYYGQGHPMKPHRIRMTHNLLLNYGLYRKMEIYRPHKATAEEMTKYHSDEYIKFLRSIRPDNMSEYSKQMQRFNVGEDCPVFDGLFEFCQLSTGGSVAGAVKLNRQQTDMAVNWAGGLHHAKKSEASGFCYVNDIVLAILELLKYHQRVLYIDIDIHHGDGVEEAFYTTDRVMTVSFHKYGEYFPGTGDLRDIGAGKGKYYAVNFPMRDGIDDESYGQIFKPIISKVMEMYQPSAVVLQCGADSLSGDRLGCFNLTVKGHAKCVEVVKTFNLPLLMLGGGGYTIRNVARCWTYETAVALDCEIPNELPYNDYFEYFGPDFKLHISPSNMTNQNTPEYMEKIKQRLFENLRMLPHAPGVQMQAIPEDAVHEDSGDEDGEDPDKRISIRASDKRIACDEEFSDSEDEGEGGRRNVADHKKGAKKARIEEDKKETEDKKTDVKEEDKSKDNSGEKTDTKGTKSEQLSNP

| IC50 [1] | bioavailability [3] | SMILES | IC50 at 48 h [2] | % inhibition of tail peak current (IKr) [4] |
| --- | --- | --- | --- | --- |
| 310 nM | 33.8% | Cn1cc(-c2ccc(C(=O)Nc3cc(-c4cccs4)ccc3N)nc2)cn1 [Compound I-003] | > 25 µM | 17.1% |
| 54 nM | 35.6% | Cn1cc(-c2cnc(C(=O)Nc3cc(-c4cccs4)ccc3N)cn2)cn1 [Compound I-006] | > 25 µM | 14.3% |
